In ChEMBL document CHEMBL3244016, “Isomers of erythro-5-(1-hydroxy-2-isopropylaminobutyl)-8-hydroxycarbostyril, a new bronchodilator” (J Med Chem, 1977):

Legend:
Canis familiaris [1] = assay: Increase in heart rate in iv dosed anesthetized mongrel dog; assay type: organism-based, Canis lupus familiaris; conditions: in vivo
Canis familiaris [2] = assay: Bronchodilatory activity in iv dosed mongrel dog assessed as inhibition of histamine-induced bronchospasm administered 1 min prior to histamine challenge relative to l-isoproterenol; assay type: functional, Canis lupus familiaris
Canis familiaris [3] = species on record: Canis familiaris; assay: Separation ratio of ED25 for increase in heart rate in mongrel dog to ED50 for inhibition of bronchoconstriction in mongrel dog; design: species or system Canis lupus familiaris
Canis familiaris [4] = assay: Increase in heart rate in iv dosed anesthetized mongrel dog relative to l-isoproterenol; assay type: organism-based, Canis lupus familiaris; conditions: in vivo
Canis familiaris [5] = assay: Bronchodilatory activity in iv dosed mongrel dog assessed as inhibition of histamine-induced bronchospasm administered 1 min prior to histamine challenge; assay type: functional; conditions: Canis lupus familiaris

Structure (SMILES)	ED14.5 (Canis familiaris [1]) [µg/kg]	Ratio ED50 (Canis familiaris [2])	Ratio (Canis familiaris [3])	Ratio (Canis familiaris [4])	ED19.5 (Canis familiaris [1]) [µg/kg]	ED25 (Canis familiaris [1]) [µg/kg]	ED50 (Canis familiaris [5]) [µg/kg]
CC[C@@H](NC(C)C)[C@@H](O)c1ccc(O)c2[nH]c(=O)ccc12	3000	18500	–	–	–	–	–
CC[C@@H](NC(C)C)[C@H](O)c1ccc(O)c2[nH]c(=O)ccc12	–	4110	1.84	7560	–	–	–
CC[C@H](NC(C)C)[C@@H](O)c1ccc(O)c2[nH]c(=O)ccc12	–	566	16.9	9550	–	–	–
CCC(NC(C)C)C(O)c1ccc(O)c2[nH]c(=O)ccc12 (racemic; erythro) [PROCATEROL]	–	2.03	24.9	50.5	–	–	–
CCC(NC(C)C)C(O)c1ccc(O)c2[nH]c(=O)ccc12 (racemic; threo) [PROCATEROL]	–	148	–	–	300	–	–
CCC(NC(C)C)C(O)c1ccc(O)c2[nH]c(=O)ccc12 (stereo in doubt) [PROCATEROL]	–	1.41	23.5	33.2	–	–	–
CC(C)NCC(O)c1ccc(O)c(O)c1 (stereo not drawn) [ISOPROTERENOL]	–	–	–	–	–	0.019	0.069
